According to ChEMBL document CHEMBL1177843, “Metal based biologically active compounds: design, synthesis, and antibacterial/antifungal/cytotoxic properties of triazole-derived Schiff bases and their oxovanadium(IV) complexes” (Eur J Med Chem, 2010):
≈ marks a conversion by molar mass, not a printed value.

Experiments:
Artemia salina = test: Toxicity in Artemia salina nauplii assessed as mortality after 24 hrs; format: organism-based; conditions: in vivo
Escherichia coli = test: Antibacterial activity against Escherichia coli at 1 mg/ml after 24 hrs by agar-well diffusion method; format: functional; conditions: for zone of inhibition at 1000 µg/mL: Escherichia coli, 24 h, read-out: DIZ
Shigella flexneri = test: Antibacterial activity against Shigella flexneri at 1 mg/ml after 24 hrs by agar-well diffusion method; format: functional; conditions: for zone of inhibition at 1000 µg/mL: Shigella flexneri, 24 h, read-out: DIZ
Pseudomonas aeruginosa = test: Antibacterial activity against Pseudomonas aeruginosa at 1 mg/ml after 24 hrs by agar-well diffusion method; format: functional; conditions: for zone of inhibition at 1000 µg/mL: Pseudomonas aeruginosa, 24 h, read-out: DIZ
Salmonella enterica = test: Antibacterial activity against Salmonella typhi at 1 mg/ml after 24 hrs by agar-well diffusion method; format: functional, Salmonella enterica subsp. enterica serovar Typhi; conditions: for zone of inhibition at 1000 µg/mL: Salmonella enterica, 24 h, read-out: DIZ
Staphylococcus aureus = test: Antibacterial activity against Staphylococcus aureus at 1 mg/ml after 24 hrs by agar-well diffusion method; format: functional; conditions: for zone of inhibition at 1000 µg/mL: Staphylococcus aureus, 24 h, read-out: DIZ
Bacillus subtilis = test: Antibacterial activity against Bacillus subtilis at 1 mg/ml after 24 hrs by agar-well diffusion method; format: functional; conditions: for zone of inhibition at 1000 µg/mL: Bacillus subtilis, 24 h, read-out: DIZ
Aspergillus flavus = test: Antifungal activity against Aspergillus flavus after 7 days; format: functional; conditions: 168 h
Trichophyton longifusum = test: Antifungal activity against Trichophyton longifusum after 7 days; format: functional; conditions: 168 h
Candida albicans = test: Antifungal activity against Candida albicans after 7 days; conditions: 168 h
Microsporum canis = test: Antifungal activity against Microsporum canis after 7 days; format: functional; conditions: 168 h
Fusarium solani = test: Antifungal activity against Fusarium solani after 7 days; format: functional; conditions: 168 h
Nakaseomyces glabratus = test: Antifungal activity against Candida glabrata after 7 days; format: functional; conditions: 168 h

SMILES | LD50 (Artemia salina) [×10⁻⁴ M/ml] | Activity (Escherichia coli) [%] | zone of inhibition at 1000 µg/mL (Escherichia coli) [mm] | Activity (Shigella flexneri) [%] | zone of inhibition at 1000 µg/mL (Shigella flexneri) [mm] | Activity (Pseudomonas aeruginosa) [%] | zone of inhibition at 1000 µg/mL (Pseudomonas aeruginosa) [mm] | Activity (Salmonella enterica) [%] | zone of inhibition at 1000 µg/mL (Salmonella enterica) [mm] | Activity (Staphylococcus aureus) [%] | zone of inhibition at 1000 µg/mL (Staphylococcus aureus) [mm] | Activity (Bacillus subtilis) [%] | zone of inhibition at 1000 µg/mL (Bacillus subtilis) [mm] | MIC (Aspergillus flavus) [µg/mL] | MIC (Trichophyton longifusum) [µg/mL] | MIC (Candida albicans) [µg/mL] | MIC (Microsporum canis) [µg/mL] | MIC (Fusarium solani) [µg/mL] | MIC (Nakaseomyces glabratus) [µg/mL]
C/C(=N\c1n[nH]c(/N=C(\C)c2ccccn2)n1)c1ccccn1 | > 3.341 | 58 | 17 | 39 | 12 | 58 | 18 | 58 | 16 | 39 | 11 | 39 | 13 |  |  |  |  |  | 
Oc1ccc2ccccc2c1/C=N/c1n[nH]c(/N=C/c2c(O)ccc3ccccc23)n1 | > 7.614 | 35 | 11 | 35 | 13 | 35 | 11 | 35 | 14 | 35 | 12 | 57 | 16 |  |  |  |  |  | 
C(=N\c1n[nH]c(/N=C/c2ccc[nH]2)n1)/c1ccc[nH]1 | > 6.897 | 55 | 17 | 39 | 12 | 39 | 14 | 55 | 16 | 39 | 11 | 39 | 13 |  |  |  |  |  | 
C(=N\c1n[nH]c(/N=C/c2ccccn2)n1)/c1ccccn1 | > 4.128 | 43 | 15 | 58 | 18 | 43 | 13 | 43 | 11 | 58 | 16 | 43 | 12 |  |  |  |  |  | 
C[C@@H]1[C@H](O)[C@@H](C)/C=C/C=C/C=C/C=C/C=C/C=C/C=C/[C@H](O[C@@H]2O[C@H](C)[C@@H](O)[C@H](N)[C@@H]2O)C[C@@H]2O[C@](O)(C[C@@H](O)C[C@@H](O)[C@H](O)CC[C@@H](O)C[C@@H](O)CC(=O)O[C@H]1C)C[C@H](O)[C@H]2C(=O)O [AMPHOTERICIN B] |  |  |  |  |  |  |  |  |  |  |  |  |  | 20 (≈ 21.6 µM) |  |  |  |  | 
C[C@@H](O)[C@H]1C(=O)N2C(C(=O)O)=C(SCCNC=N)C[C@H]12 [IMIPENEM ANHYDROUS] |  |  | 29 |  | 31 |  | 30 |  | 29 |  | 26 |  | 28 |  |  |  |  |  | 
Clc1ccc(COC(Cn2ccnc2)c2ccc(Cl)cc2Cl)c(Cl)c1 (centres undefined) [MICONAZOLE] |  |  |  |  |  |  |  |  |  |  |  |  |  |  | 70 (≈ 168 µM) | 111 (≈ 266 µM) | 98.4 (≈ 236 µM) | 73.2 (≈ 176 µM) | 111 (≈ 266 µM)
